Patent US12331040B2 (Karyopharm Therapeutics Inc., priority 2013, dated 2025)

What was measured:
Test in all cases: MTT cell proliferation assay
Type in all cases: cell-based
3T3 cells = conditions: Mus musculus, NIH3T3, approximately 64-72 hours incubation, read-out: MTT Assay IC50 3T3
Outline: (§1)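 Cytotoxicity was measured by MTT: OD490 of the solubilized formazan after roughly 4 h with MTT reagent, reported as mean percent inhibition relative to the negative control. Test compounds covered eight concentrations between 1 nM and 30 μM, added to 5,000–10,000 cells per well that had attached overnight.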

MS751 cells = conditions: Homo sapiens, MS751, MS751 cells; approximately 64-72 hours incubation; read-out: MTT Assay IC50 MS-751
Outline: as §1

Z138 cells = conditions: Homo sapiens, Z-138, Z138 cells; approximately 64-72 hours incubation; read-out: MTT Assay IC50 Z-138
Outline: as §1

Structure (SMILES)	IC50 (3T3 cells) [µM]	IC50 (MS751 cells) [µM]	IC50 (Z138 cells) [µM]
Nc1ccc(/C=C/C(=O)NCc2cc3cc(-c4ccc(C(=O)N5CCC(Cl)CC5)cn4)cc(C(F)(F)F)c3o2)cn1 [Compound 614, (E)-3-(6-aminopyridin-3-yl)-N-((5-(5-(4-chloropiperidine-1-carbonyl)pyridin-2-yl)-7-(trifluoromethyl)benzofuran-2-yl)methyl)acrylamide]	> 10	0.1 to 5	0.1 to 5
Nc1ccc(/C=C/C(=O)NCc2cc3cc(-c4ccc(C(=O)N5CCC(C(F)(F)F)CC5)cn4)cc(C(F)(F)F)c3o2)cn1 [Compound 615, (E)-3-(6-aminopyridin-3-yl)-N-((7-(trifluoromethyl)-5-(5-(4-(trifluoromethyl)piperidine-1-carbonyl)pyridin-2-yl)benzofuran-2-yl)methyl)acrylamide]	> 10	0.1 to 5	0.1 to 5
Nc1ccc(/C=C/C(=O)NCc2cc3cc(-c4ccc(C(=O)N5CCC(O)(C(F)(F)F)CC5)cn4)cc(C(F)(F)F)c3o2)cn1 [Compound 616, (E)-3-(6-aminopyridin-3-yl)-N-((5-(5-(4-hydroxy-4-(trifluoromethyl)piperidine-1-carbonyl)pyridin-2-yl)-7-(trifluoromethyl)benzofuran-2-yl)methyl)acrylamide]	> 10	< 0.1	< 0.1
CC1(F)CCN(C(=O)c2ccc(-c3cc(C(F)(F)F)c4oc(CNC(=O)/C=C/c5ccc(N)nc5)cc4c3)nc2)C1 (stereo not drawn) [Compound 617, (E)-3-(6-aminopyridin-3-yl)-N-((5-(5-(3-fluoro-3-methylpyrrolidine-1-carbonyl)pyridin-2-yl)-7-(trifluoromethyl)benzofuran-2-yl)methyl)acrylamide]	> 10	0.1 to 5	< 0.1
Nc1ccc(/C=C/C(=O)NCc2cc3cc(-c4ccc(C(=O)N5CC[C@H](Cl)C5)cn4)cc(C(F)(F)F)c3o2)cn1 [Compound 618, (S,E)-3-(6-aminopyridin-3-yl)-N-((5-(5-(3-chloropyrrolidine-1-carbonyl)pyridin-2-yl)-7-(trifluoromethyl)benzofuran-2-yl)methyl)acrylamide]	> 10	0.1 to 5	0.1 to 5
Nc1ccc(/C=C/C(=O)NCc2cc3cc(-c4ccc(C(=O)NC5(C(F)(F)F)CC5)cn4)cc(C(F)(F)F)c3o2)cn1 [Compound 619, (E)-6-(2-((3-(6-aminopyridin-3-yl)acrylamido)methyl)-7-(trifluoromethyl)benzofuran-5-yl)-N-(1-(trifluoromethyl)cyclopropyl)nicotinamide]	> 10	0.1 to 5	0.1 to 5
CC1(O)CCN(C(=O)c2ccc(-c3cc(C(F)(F)F)c4oc(CNC(=O)/C=C/c5ccc(N)nc5)cc4c3)nc2)CC1 [Compound 620, (E)-3-(6-aminopyridin-3-yl)-N-((5-(5-(4-hydroxy-4-methylpiperidine-1-carbonyl)pyridin-2-yl)-7-(trifluoromethyl)benzofuran-2-yl)methyl)acrylamide]	> 10	< 0.1	< 0.1
CC1(O)CN(C(=O)c2ccc(-c3cc(C(F)(F)F)c4oc(CNC(=O)/C=C/c5ccc(N)nc5)cc4c3)nc2)C1 [Compound 621, (E)-3-(6-aminopyridin-3-yl)-N-((5-(5-(3-hydroxy-3-methylazetidine-1-carbonyl)pyridin-2-yl)-7-(trifluoromethyl)benzofuran-2-yl)methyl)acrylamide]	> 10	0.1 to 5	0.1 to 5
Nc1ccc(/C=C/C(=O)NCc2cc3cc(-c4ccc(C(=O)N5CCC[C@H]5C(F)(F)F)cn4)cc(C(F)(F)F)c3o2)cn1 [Compound 622, (S,E)-3-(6-aminopyridin-3-yl)-N-((7-(trifluoromethyl)-5-(5-(2-(trifluoromethyl)pyrrolidine-1-carbonyl)pyridin-2-yl)benzofuran-2-yl)methyl)acrylamide]	> 10	> 10	5 to 10
Nc1ccc(/C=C/C(=O)NCc2cc3cc(-c4ccc(C(=O)N5CC6CC6C5)cn4)cc(C(F)(F)F)c3o2)cn1 (stereo not drawn) [Compound 623, (E)-N-((5-(5-(3-azabicyclo[3.1.0]hexane-3-carbonyl)pyridin-2-yl)-7-(trifluoromethyl)benzofuran-2-yl)methyl)-3-(6-aminopyridin-3-yl)acrylamide]	> 10	0.1 to 5	0.1 to 5
Nc1ccc(/C=C/C(=O)NCc2cc3cc(-c4ccc(C(=O)N5CCC[C@@H]5C(F)(F)F)cn4)cc(C(F)(F)F)c3o2)cn1 [Compound 624, (R,E)-3-(6-aminopyridin-3-yl)-N-((7-(trifluoromethyl)-5-(5-(2-(trifluoromethyl)pyrrolidine-1-carbonyl)pyridin-2-yl)benzofuran-2-yl)methyl)acrylamide]	> 10	0.1 to 5	0.1 to 5
Nc1ccc(/C=C/C(=O)NCc2cc3cc(-c4ccc(C(=O)N5CC6(COC6)C5)cn4)cc(C(F)(F)F)c3o2)cn1 [Compound 625, (E)-N-((5-(5-(2-oxa-6-azaspiro[3.3]heptane-6-carbonyl)pyridin-2-yl)-7-(trifluoromethyl)benzofuran-2-yl)methyl)-3-(6-aminopyridin-3-yl)acrylamide]	0.1 to 5	< 0.1	< 0.1
Nc1ccc(/C=C/C(=O)NCc2cc3cc(-c4ccc(C(=O)N5CC6CC(C5)O6)cn4)cc(C(F)(F)F)c3o2)cn1 [Compound 626, (E)-N-((5-(5-(6-oxa-3-azabicyclo[3.1.1]heptane-3-carbonyl)pyridin-2-yl)-7-(trifluoromethyl)benzofuran-2-yl)methyl)-3-(6-aminopyridin-3-yl)acrylamide]	> 10	0.1 to 5	0.1 to 5
CC1(O)CCN(C(=O)c2ccc(-c3cc(C(F)(F)F)c4oc(CNC(=O)/C=C/c5ccc(N)nc5)cc4c3)nc2)C1 (stereo not drawn) [Compound 627, (E)-3-(6-aminopyridin-3-yl)-N-((5-(5-(3-hydroxy-3-methylpyrrolidine-1-carbonyl)pyridin-2-yl)-7-(trifluoromethyl)benzofuran-2-yl)methyl)acrylamide]	> 10	< 0.1	< 0.1
CO[C@@H]1CN(C(=O)c2ccc(-c3cc(C(F)(F)F)c4oc(CNC(=O)/C=C/c5ccc(N)nc5)cc4c3)nc2)C[C@H]1F [Compound 628, (E)-3-(6-aminopyridin-3-yl)-N-((5-(5-(3-fluoro-4-methoxypyrrolidine-1-carbonyl)pyridin-2-yl)-7-(trifluoromethyl)benzofuran-2-yl)methyl)acrylamide]	> 10	0.1 to 5	0.1 to 5
Nc1ccc(/C=C/C(=O)NCc2cc3cc(-c4ccc(C(=O)NC5CCC(F)(F)CC5)cn4)cc(C(F)(F)F)c3o2)cn1 [Compound 629, (E)-6-(2-((3-(6-aminopyridin-3-yl)acrylamido)methyl)-7-(trifluoromethyl)benzofuran-5-yl)-N-(4,4-difluorocyclohexyl)nicotinamide]	> 10	0.1 to 5	0.1 to 5
Nc1ccc(/C=C/C(=O)NCc2cc3cc(-c4ccc(C(=O)NCc5cccnc5)cn4)cc(C(F)(F)F)c3o2)cn1 [Compound 630, (E)-6-(2-((3-(6-aminopyridin-3-yl)acrylamido)methyl)-7-(trifluoromethyl)benzofuran-5-yl)-N-(pyridin-3-ylmethyl)nicotinamide]	0.1 to 5	< 0.1	< 0.1
CC1(C)C2CN(C(=O)c3ccc(-c4cc(C(F)(F)F)c5oc(CNC(=O)/C=C/c6ccc(N)nc6)cc5c4)nc3)CC21 (stereo not drawn) [Compound 631, (E)-3-(6-aminopyridin-3-yl)-N-((5-(5-(6,6-dimethyl-3-azabicyclo[3.1.0]hexane-3-carbonyl)pyridin-2-yl)-7-(trifluoromethyl)benzofuran-2-yl)methyl)acrylamide]	> 10	0.1 to 5	0.1 to 5
Nc1ccc(/C=C/C(=O)NCc2cc3cc(-c4ccc(C(=O)N5CC6CCC(C5)O6)cn4)cc(C(F)(F)F)c3o2)cn1 [Compound 632, (E)-N-((5-(5-(8-oxa-3-azabicyclo[3.2.1]octane-3-carbonyl)pyridin-2-yl)-7-(trifluoromethyl)benzofuran-2-yl)methyl)-3-(6-aminopyridin-3-yl)acrylamide]	> 10	0.1 to 5	0.1 to 5
Nc1ccc(/C=C/C(=O)NCc2cc3cc(-c4ccc(C(=O)N5CC6CC5CO6)cn4)cc(C(F)(F)F)c3o2)cn1 (stereo not drawn) [Compound 633, (E)-N-((5-(5-(2-oxa-5-azabicyclo[2.2.1]heptane-5-carbonyl)pyridin-2-yl)-7-(trifluoromethyl)benzofuran-2-yl)methyl)-3-(6-aminopyridin-3-yl)acrylamide]	> 10	0.1 to 5	0.1 to 5
Nc1ccc(/C=C/C(=O)NCc2cc3cc(-c4ccc(C(=O)N5CC6(CCO6)C5)cn4)cc(C(F)(F)F)c3o2)cn1 [Compound 634, (E)-N-((5-(5-(1-oxa-6-azaspiro[3.3]heptane-6-carbonyl)pyridin-2-yl)-7-(trifluoromethyl)benzofuran-2-yl)methyl)-3-(6-aminopyridin-3-yl)acrylamide]	> 10	0.1 to 5	0.1 to 5
COc1cc(-c2ccc(S(=O)(=O)N3CCOCC3)cc2)cc2cc(CNC(=O)/C=C/c3ccc(N)nc3)oc12 [Compound 635, (E)-3-(6-aminopyridin-3-yl)-N-((7-methoxy-5-(4-(morpholinosulfonyl)phenyl)benzofuran-2-yl)methyl)acrylamide]	0.1 to 5	< 0.1	< 0.1
